In ChEMBL document CHEMBL4393657, “Tetrazole hybrids and their antifungal activities” (2019):
Converted amounts (≈) assume the structure as drawn. Values belong to the compound of their own block, whether it stands above or below them.

What was measured:
Format in all cases: functional
[1] = tested on: Pichia kudriavzevii; test: Antifungal activity against Candida krusei assessed as reduction in fungal cell growth incubated for 24 hrs by broth microdilution method
[2] = tested on: Candida albicans; test: Antifungal activity against Candida albicans assessed as reduction in fungal cell growth incubated for 24 hrs by broth microdilution method
[3] = tested on: Nakaseomyces glabratus; test: Antifungal activity against Candida glabrata assessed as reduction in fungal cell growth incubated for 24 hrs by broth microdilution method
[4] = tested on: Candida tropicalis; test: Antifungal activity against Candida tropicalis assessed as reduction in fungal cell growth incubated for 24 hrs by broth microdilution method
[5] = tested on: Trichophyton mentagrophytes; test: Antifungal activity against Trichophyton mentagrophytes assessed as reduction in fungal cell growth incubated for 3 to 4 days by disk diffusion method
[6] = tested on: Candida albicans; test: Antifungal activity against Candida albicans assessed as reduction in fungal cell growth incubated for 48 hrs by broth microdilution method
[7] = tested on: Candida parapsilosis; test: Antifungal activity against Candida parapsilosis ATCC 22019 assessed as reduction in fungal cell growth incubated for 48 hrs by broth microdilution method; details: Lodderomyces parapsilosis, ATCC 22019, 48 h
[8] = tested on: Aspergillus flavus; test: Antifungal activity against Aspergillus flavus NCIM 524 assessed as reduction in fungal cell growth incubated for 3 to 4 days by disk diffusion method
[9] = tested on: Pichia kudriavzevii; test: Antifungal activity against Candida krusei assessed as reduction in fungal cell growth incubated for 48 hrs by broth microdilution method
[10] = tested on: Nakaseomyces glabratus; test: Antifungal activity against Candida glabrata assessed as reduction in fungal cell growth incubated for 48 hrs by broth microdilution method
[11] = tested on: Aspergillus fumigatus; test: Antifungal activity against Aspergillus fumigatus NCIM 902 assessed as reduction in fungal cell growth incubated for 3 to 4 days by disk diffusion method
[12] = tested on: Aspergillus niger; test: Antifungal activity against Aspergillus niger assessed as reduction in fungal cell growth incubated for 72 hrs by broth microdilution method
[13] = tested on: Talaromyces marneffei; test: Antifungal activity against Penicillium marneffei assessed as reduction in fungal cell growth incubated for 3 to 4 days by disk diffusion method
[14] = tested on: Cryptococcus neoformans; test: Antifungal activity against Cryptococcus neoformans LA314 assessed as reduction in fungal cell growth incubated for 48 hrs by broth microdilution method; details: LA314, 48 h
[15] = tested on: Candida tropicalis; test: Antifungal activity against Candida tropicalis assessed as reduction in fungal cell growth incubated for 48 hrs by broth microdilution method
[16] = tested on: Mucor indicus; test: Antifungal activity against Mucor indicus
[17] = tested on: Rhizopus arrhizus; test: Antifungal activity against Rhizopus arrhizus
[18] = tested on: Aspergillus niger; test: Antifungal activity against Aspergillus niger
[19] = tested on: Candida albicans; test: Antifungal activity against Candida albicans
[20] = tested on: Aspergillus flavus; test: Antifungal activity against Aspergillus flavus
[21] = tested on: Candida albicans; test: Antifungal activity against Candida albicans MTCC 227 assessed as reduction in fungal cell growth incubated for 24 hrs by broth microdilution method; details: MTCC 227, 24 h
[22] = tested on: Nakaseomyces glabratus; test: Potency index, ratio for MIC of fluconazole to MIC of compound for antifungal activity against Candida glabrata NCIM 3236 assessed as reduction in fungal cell growth incubated for 24 hrs by broth microdilution method
[23] = tested on: Nakaseomyces glabratus; test: Antifungal activity against Candida glabrata NCIM 3236 assessed as reduction in fungal cell growth incubated for 24 hrs by broth microdilution method; details: NCIM 3236, 24 h
[24] = tested on: Candida tropicalis; test: Potency index, ratio for MIC of fluconazole to MIC of compound for Antifungal activity against Candida tropicalis NCIM 3110 assessed as reduction in fungal cell growth incubated for 24 hrs by broth microdilution method
[25] = tested on: Candida tropicalis; test: Antifungal activity against Candida tropicalis NCIM 3110 assessed as reduction in fungal cell growth incubated for 48 hrs by broth microdilution method; details: NCIM 3110, 48 h
[26] = tested on: Aspergillus niger; test: Antifungal activity against Aspergillus niger assessed as reduction in fungal cell growth incubated for 48 hrs by broth microdilution method
[27] = tested on: Aspergillus niger; test: Antifungal activity against Aspergillus niger NCCS 1196 assessed as inhibition zone at 500 ug/ml by disk diffusion method; details: read-out: IZ
[28] = tested on: Candida albicans; test: Antifungal activity against Candida albicans NCCS 3471 assessed as inhibition zone at 500 ug/ml by disk diffusion method; details: read-out: IZ

Structure (SMILES): C[C@@H]1[C@H](O)[C@@H](C)/C=C/C=C/C=C/C=C/C=C/C=C/C=C/[C@H](O[C@@H]2O[C@H](C)[C@@H](O)[C@H](N)[C@@H]2O)C[C@@H]2O[C@](O)(C[C@@H](O)C[C@@H](O)[C@H](O)CC[C@@H](O)C[C@@H](O)CC(=O)O[C@H]1C)C[C@H](O)[C@H]2C(=O)O [AMPHOTERICIN B]
MIC [2]: < 0.48 µg/mL

Structure (SMILES): CC(=O)N1N=C(Cn2cc(-c3nn(-c4ccncc4)cc3-c3nnnn3-c3ccc(C(F)(F)F)cc3)c3cc(Cl)ccc32)OC1(C)c1ccc(C)cc1 (stereo not given)
zone of inhibition at 500 µg/mL [27]: 11 to 20 mm
zone of inhibition at 500 µg/mL [28]: 11 to 20 mm

Structure (SMILES): CC(=O)N1N=C(Cn2cc(-c3nn(-c4ccncc4)cc3-c3nnnn3-c3ccc(C(F)(F)F)cc3)c3cc(Cl)ccc32)OC1(C)c1ccccc1 (stereo not given)
zone of inhibition at 500 µg/mL [27]: 11 to 20 mm
zone of inhibition at 500 µg/mL [28]: 11 to 20 mm

Structure (SMILES): CCn1nnnc1SCCCSc1nnnn1-c1ccccc1
MIC [5]: 6.25 to 50 µg/mL (≈ 17.9 to 143 µM)
MIC [8]: 6.25 to 50 µg/mL (≈ 17.9 to 143 µM)
MIC [11]: 6.25 to 50 µg/mL (≈ 17.9 to 143 µM)
MIC [13]: 6.25 to 50 µg/mL (≈ 17.9 to 143 µM)

Structure (SMILES): Cc1ccc(C2c3ccc4ccccc4c3Oc3[nH]c(=S)n4nnnc4c32)cc1 (stereo not given)
MIC [6]: 50 to 400 µg/mL (≈ 126 to 1010 µM)
MIC [26]: 50 to 400 µg/mL (≈ 126 to 1010 µM)

Structure (SMILES): Fc1cc2nc(SCc3ccc(-c4ccccc4-c4nnnn4C(c4ccccc4)(c4ccccc4)c4ccccc4)cc3)[nH]c2cc1Oc1ccc(Cl)cc1
MIC [1]: 16 µg/mL (≈ 20.7 µM)
MIC [2]: 16 µg/mL (≈ 20.7 µM)
MIC [3]: 16 µg/mL (≈ 20.7 µM)
MIC [4]: 16 µg/mL (≈ 20.7 µM)

Structure (SMILES): CC(=O)N1N=C(Cn2cc(-c3nn(-c4ccncc4)cc3-c3nnnn3-c3ccc(C(F)(F)F)cc3)c3cc(Cl)ccc32)OC1(C)c1ccc(C(F)(F)F)cc1 (stereo not given)
zone of inhibition at 500 µg/mL [27]: 11 to 20 mm
zone of inhibition at 500 µg/mL [28]: 11 to 20 mm

Further lines, with some results ahead:

MIC [1]: 8 to 16 µg/mL (≈ 11.3 to 22.5 µM)
MIC [2]: 8 to 16 µg/mL (≈ 11.3 to 22.5 µM)
MIC [3]: 8 to 16 µg/mL (≈ 11.3 to 22.5 µM)
MIC [4]: 8 to 16 µg/mL (≈ 11.3 to 22.5 µM)
Structure (SMILES): Fc1cc2nc(SCc3ccc(-c4ccccc4-c4nnnn4C(c4ccccc4)(c4ccccc4)c4ccccc4)cc3)[nH]c2cc1-n1ccnc1

MIC [5]: 6.25 µg/mL (≈ 8.86 µM)
MIC [6]: 0.007 to 0.5 µg/mL (≈ 0.00992 to 0.709 µM)
MIC [7]: 0.007 to 0.5 µg/mL (≈ 0.00992 to 0.709 µM)
MIC [8]: 6.25 µg/mL (≈ 8.86 µM)
MIC [9]: 0.007 to 0.5 µg/mL (≈ 0.00992 to 0.709 µM)
MIC [10]: 0.007 to 0.5 µg/mL (≈ 0.00992 to 0.709 µM)
MIC [11]: 6.25 µg/mL (≈ 8.86 µM)
MIC [12]: 0.007 to 0.5 µg/mL (≈ 0.00992 to 0.709 µM)
MIC [13]: 6.25 µg/mL (≈ 8.86 µM)
MIC [14]: 0.007 to 0.5 µg/mL (≈ 0.00992 to 0.709 µM)
MIC [15]: 0.007 to 0.5 µg/mL (≈ 0.00992 to 0.709 µM)
Structure (SMILES): CCC(C)n1ncn(-c2ccc(N3CCN(c4ccc(OCC5COC(Cn6cncn6)(c6ccc(Cl)cc6Cl)O5)cc4)CC3)cc2)c1=O (stereo not given) [ITRACONAZOLE]

MIC [16]: 6.25 to 100 µg/mL (≈ 11.7 to 188 µM)
MIC [17]: 6.25 to 100 µg/mL (≈ 11.7 to 188 µM)
MIC [18]: 6.25 to 100 µg/mL (≈ 11.7 to 188 µM)
MIC [19]: 6.25 to 100 µg/mL (≈ 11.7 to 188 µM)
MIC [20]: 6.25 to 100 µg/mL (≈ 11.7 to 188 µM)
Structure (SMILES): Cc1ccc(-n2nnnc2C(=O)CN2CCN(c3nc4c(cc3F)c(=O)c(C(=O)O)cn4C3CC3)CC2)cc1

MIC [21]: 12.5 to 25 µg/mL (≈ 33.5 to 67.1 µM)
MIC [23]: 12.5 to 50 µg/mL (≈ 33.5 to 134 µM)
MIC [25]: 12.5 to 50 µg/mL (≈ 33.5 to 134 µM)
Structure (SMILES): O=c1c(OCc2nnn[nH]2)c(-c2ccc(F)cc2)oc2ccc(Cl)cc12
Ratio [22]: 16 - 64
Ratio [24]: 16 - 64

MIC [21]: 12.5 to 50 µg/mL (≈ 35.5 to 142 µM)
MIC [23]: 12.5 to 50 µg/mL (≈ 35.5 to 142 µM)
MIC [25]: 12.5 to 50 µg/mL (≈ 35.5 to 142 µM)
Structure (SMILES): Cc1cccc2c(=O)c(OCc3nnn[nH]3)c(-c3ccc(F)cc3)oc12
Ratio [22]: 8 - 64
Ratio [24]: 8 - 64

MIC [6]: 50 to 400 µg/mL (≈ 120 to 957 µM)
MIC [26]: 50 to 400 µg/mL (≈ 120 to 957 µM)
Structure (SMILES): S=c1[nH]c2c(c3nnnn13)C(c1ccc(Cl)cc1)c1ccc3ccccc3c1O2 (stereo not given)

MIC [16]: 6.25 to 100 µg/mL (≈ 11.4 to 182 µM)
MIC [17]: 6.25 to 100 µg/mL (≈ 11.4 to 182 µM)
MIC [18]: 6.25 to 100 µg/mL (≈ 11.4 to 182 µM)
MIC [19]: 6.25 to 100 µg/mL (≈ 11.4 to 182 µM)
MIC [20]: 6.25 to 100 µg/mL (≈ 11.4 to 182 µM)
Structure (SMILES): COc1ccc(-n2nnnc2C(=O)CN2CCN(c3nc4c(cc3F)c(=O)c(C(=O)O)cn4C3CC3)CC2)cc1

MIC [1]: 4 to 8 µg/mL (≈ 5.62 to 11.2 µM)
MIC [2]: 4 to 8 µg/mL (≈ 5.62 to 11.2 µM)
MIC [3]: 4 to 8 µg/mL (≈ 5.62 to 11.2 µM)
MIC [4]: 4 to 8 µg/mL (≈ 5.62 to 11.2 µM)
Structure (SMILES): Fc1cc2[nH]c(SCc3ccc(-c4ccccc4-c4nnnn4C(c4ccccc4)(c4ccccc4)c4ccccc4)cc3)nc2cc1-n1cncn1

MIC [6]: 50 to 400 µg/mL (≈ 117 to 934 µM)
MIC [26]: 50 to 400 µg/mL (≈ 117 to 934 µM)
Structure (SMILES): O=[N+]([O-])c1cccc(C2c3ccc4ccccc4c3Oc3[nH]c(=S)n4nnnc4c32)c1 (stereo not given)

MIC [16]: 6.25 to 100 µg/mL (≈ 10.5 to 167 µM)
MIC [17]: 6.25 to 100 µg/mL (≈ 10.5 to 167 µM)
MIC [18]: 6.25 to 100 µg/mL (≈ 10.5 to 167 µM)
MIC [19]: 6.25 to 100 µg/mL (≈ 10.5 to 167 µM)
MIC [20]: 6.25 to 100 µg/mL (≈ 10.5 to 167 µM)
Structure (SMILES): O=C(O)c1cn(C2CC2)c2nc(N3CCN(CC(=O)c4nnnn4-c4ccc(Br)cc4)CC3)c(F)cc2c1=O

MIC [16]: 6.25 to 100 µg/mL (≈ 11.1 to 177 µM)
MIC [17]: 6.25 to 100 µg/mL (≈ 11.1 to 177 µM)
MIC [18]: 6.25 µg/mL (≈ 11.1 µM)
MIC [19]: 6.25 to 100 µg/mL (≈ 11.1 to 177 µM)
MIC [20]: 6.25 to 100 µg/mL (≈ 11.1 to 177 µM)
Structure (SMILES): O=C(O)c1cn(C2CC2)c2nc(N3CCN(CC(=O)c4nnnn4-c4ccc([N+](=O)[O-])cc4)CC3)c(F)cc2c1=O
